Results reported in US20210179600A1, “OXAZOLE AND THIAZOLE DERIVATIVES AS INHIBITORS OF ASK1” (Hepagene Therapeutics (HK) Limited, priority 2017, published 2021).
pEC50: −log10 of the molar value.

What follows are compounds tested against T1, Recombinant human ASK1 kinase (Homo sapiens, UniProt Q99683) (assay: ASK1 kinase HTRF assay (KinEASE-STK)). Conditions: HTRF detection; 3 nM ASK1 kinase, 1 uM STK-substrate-biotin.
T1 construct: purchased Invitrogen Inc
T1 sequence (Q99683 1-1374): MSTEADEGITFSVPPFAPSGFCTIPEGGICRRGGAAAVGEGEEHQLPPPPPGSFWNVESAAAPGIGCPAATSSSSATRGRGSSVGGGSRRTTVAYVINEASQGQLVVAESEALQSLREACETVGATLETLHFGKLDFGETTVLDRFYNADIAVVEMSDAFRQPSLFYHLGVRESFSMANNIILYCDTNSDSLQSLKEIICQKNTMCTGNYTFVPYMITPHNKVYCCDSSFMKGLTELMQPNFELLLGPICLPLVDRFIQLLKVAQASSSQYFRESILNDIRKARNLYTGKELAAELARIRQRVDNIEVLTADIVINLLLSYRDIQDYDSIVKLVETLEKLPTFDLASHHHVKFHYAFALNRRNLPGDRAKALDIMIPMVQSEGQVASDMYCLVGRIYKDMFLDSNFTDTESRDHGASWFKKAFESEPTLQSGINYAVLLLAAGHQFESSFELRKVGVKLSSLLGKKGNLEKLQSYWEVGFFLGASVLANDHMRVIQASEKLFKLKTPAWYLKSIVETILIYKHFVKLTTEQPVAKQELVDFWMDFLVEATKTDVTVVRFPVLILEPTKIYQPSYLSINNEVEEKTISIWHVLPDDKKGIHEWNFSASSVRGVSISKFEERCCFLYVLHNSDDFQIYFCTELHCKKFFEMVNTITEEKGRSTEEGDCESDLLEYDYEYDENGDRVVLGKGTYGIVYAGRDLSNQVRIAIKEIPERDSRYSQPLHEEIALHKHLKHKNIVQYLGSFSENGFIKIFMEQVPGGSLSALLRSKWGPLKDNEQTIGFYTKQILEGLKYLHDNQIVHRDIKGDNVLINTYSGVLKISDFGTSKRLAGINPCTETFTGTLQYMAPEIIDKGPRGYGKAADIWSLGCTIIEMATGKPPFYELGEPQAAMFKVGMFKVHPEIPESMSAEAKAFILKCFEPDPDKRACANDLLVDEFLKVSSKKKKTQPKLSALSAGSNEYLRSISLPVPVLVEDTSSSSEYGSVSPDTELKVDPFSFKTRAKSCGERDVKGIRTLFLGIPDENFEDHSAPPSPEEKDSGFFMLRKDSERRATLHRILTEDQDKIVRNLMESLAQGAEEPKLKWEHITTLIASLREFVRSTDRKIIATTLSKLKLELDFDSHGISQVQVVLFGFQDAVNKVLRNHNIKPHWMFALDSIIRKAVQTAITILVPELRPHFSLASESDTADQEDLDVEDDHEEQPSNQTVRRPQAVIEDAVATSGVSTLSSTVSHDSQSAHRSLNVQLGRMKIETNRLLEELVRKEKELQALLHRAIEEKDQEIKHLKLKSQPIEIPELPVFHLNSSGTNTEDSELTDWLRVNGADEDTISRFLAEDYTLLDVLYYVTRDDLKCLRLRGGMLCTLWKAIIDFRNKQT
Format: biochemical
Method: Reagents: Recombinant human ASK1 kinase was from Invitrogen Inc. HTRF KinEASE™-STK S3 kit was obtained from Cisbio (Bedford, Mass.). All other reagents were of the highest grade commercially available.
Assay: The assay measures the phosphorylation level of a biotinylatd peptide substrate by the ASK1 kinase using HTRF detection. ASK1 kinase assay is based on HTRF KinEASE™-STK manual from Cisbio. Test compound, 1 uM STK-substrate-biotin, 3 nM of ASK1 kinase are incubated with 1*Kinase buffer with 5 mM MgCl2 and 1 mM DTT. 250 nM Sa-XL 665(4*) and STK-antibody-Cryptate work solution are added to stop the reaction and phosphorylated peptide substrate is detected using Envision 2104 Multilabeled reader from PerkinElmer. The fluorescence is measured at 615 nm (Cryptate) and 665 nm (XL665) and a ratio of 665 nm/615 nm is calculated for each well. The resulting TR-FRET level (a ratio of 665 nm/615 nm) is proportional to the phosphorylation level of substrate.

Q: How did the pEC50 turn out when `CC(=O)N1CCN(c2cccc(-c3cnc(-c4cccc(-c5nncn5C(C)C)n4)o3)c2)CC1` [Compound I-011, 1-(4-(3-(2-(6-(4-Isopropyl-4H-1,2,4-triazol-3-yl)pyridin-2-yl)oxazol-5-yl)phenyl)piperazin-1-yl)ethenone] was run?
A: ≥ 7.30

Q: With `CC(C)n1cnnc1-c1cccc(-c2ncc(-c3ccc4c(c3)CCCC4)o2)n1` [Compound I-103] as the compound, how does the pEC50 read?
A: 6.30 to 7.30

Q: `C[C@H](CO)n1cnnc1-c1cccc(-c2ncc(-c3cccc(S(C)(=O)=O)c3)o2)n1` [Compound I-097] was tested. Which pEC50 did it give?
A: ≥ 7.30

Q: With `CC(C)n1cnnc1-c1cccc(-c2ncc(-c3ccncc3)o2)n1` [Compound I-021] as the compound, how does the pEC50 read?
A: 6.30 to 7.30

Q: How did the pEC50 turn out when `C[C@H](CO)n1cnnc1-c1cccc(-c2ncc(-c3cccc(N4CCOCC4)c3)o2)n1` [Compound I-111] was run?
A: ≥ 7.30

Q: `CC(C)n1cnnc1-c1cccc(-c2ncc(-c3cccc(OC(F)F)c3)o2)n1` [Compound I-083] was tested. Which pEC50 did it give?
A: 6.30 to 7.30

Q: With `C[C@H](CO)n1cnnc1-c1cccc(-c2ncc(-c3c(F)cccc3F)o2)n1` [Compound I-051] as the compound, how does the pEC50 read?
A: ≥ 7.30

Q: `COc1ccc(-c2cnc(-c3cccc(-c4nncn4C(C)C)n3)o2)cc1` [Compound I-071] was tested. Which pEC50 did it give?
A: 6.30 to 7.30

Q: How did the pEC50 turn out when `CC(C)n1cnnc1-c1cccc(-c2ncc(-c3cccc(-c4ccccc4)c3)o2)n1` [Compound I-104] was run?
A: 6.30 to 7.30

Q: `C[C@H](CO)n1cnnc1-c1cccc(-c2ncc(-c3cccc(N4CCN(C)CC4)c3)o2)n1` [Compound I-116] was tested. Which pEC50 did it give?
A: ≥ 7.30

Q: How did the pEC50 turn out when `C[C@H](CO)n1cnnc1-c1cccc(-c2ncc(-c3cccc(O)c3)o2)n1` [Compound I-074] was run?
A: ≥ 7.30

Q: `CCc1cccc(-c2cnc(-c3cccc(-c4nncn4C(C)C)n3)o2)c1` [Compound I-037] was tested. Which pEC50 did it give?
A: 6.30 to 7.30

Q: With `CC(C)n1cnnc1-c1cccc(-c2ncc(-c3cccc(N4CCC(NC(=O)OC(C)(C)C)C4)c3)o2)n1` (stereo not drawn) [Compound I-128] as the compound, how does the pEC50 read?
A: ≥ 7.30

Q: `CC(C)n1cnnc1-c1cccc(-c2ncc(-c3cccc(N4CCC(N5CCOCC5)CC4)c3)o2)n1` [Compound I-122] was tested. Which pEC50 did it give?
A: 6.30 to 7.30

Q: `CC(C)n1cnnc1-c1cccc(-c2ncc(-c3cccc(N4CCNCC4)c3)o2)n1` [Compound I-113] was tested. Which pEC50 did it give?
A: ≥ 7.30

Q: How did the pEC50 turn out when `CC(C)n1cnnc1-c1cccc(-c2ncc(-c3cccc(C(=O)O)c3)o2)n1` [Compound I-008, 3-(2-[6-[4-(Propan-2-yl)-4H-1,2,4-triazol-3-yl]pyridin-2-yl]-1,3-oxazol-5-yl)benzoic acid] was run?
A: 6.30 to 7.30

Q: `CC(C)n1cnnc1-c1cccc(-c2ncc(-c3cccc(C(F)(F)F)c3)o2)n1` [Compound I-086] was tested. Which pEC50 did it give?
A: 6.30 to 7.30

Q: How did the pEC50 turn out when `CC(C)c1cccc(-c2cnc(-c3cccc(-c4nncn4C(C)C)n3)o2)c1` [Compound I-034] was run?
A: 6.30 to 7.30

Q: `CC(C)n1cnnc1-c1cccc(-c2ncc(-c3cccc(-c4ccncc4)c3)o2)n1` [Compound I-108] was tested. Which pEC50 did it give?
A: ≥ 7.30

Q: How did the pEC50 turn out when `CNc1cccc(-c2cnc(-c3cccc(-c4nncn4C(C)C)n3)o2)c1` [Compound I-061] was run?
A: ≥ 7.30

Q: How did the pEC50 turn out when `CC(C)n1cnnc1-c1cccc(-c2ncc(-c3cccc(N4CCN(S(C)(=O)=O)CC4)c3)o2)n1` [Compound I-119] was run?
A: ≥ 7.30

Q: With `Cc1ccc(-c2cnc(-c3cccc(-c4nncn4C(C)C)n3)o2)cc1` [Compound I-029] as the compound, how does the pEC50 read?
A: ≥ 7.30

Q: How did the pEC50 turn out when `CC(C)n1cnnc1-c1cccc(-c2ncc(-c3cccc(C4CCNCC4)c3)o2)n1` [Compound I-123] was run?
A: ≥ 7.30

Q: How did the pEC50 turn out when `CC(C)n1cnnc1-c1cccc(-c2ncc(-c3cccc(C(F)F)c3)o2)n1` [Compound I-087] was run?
A: 6.30 to 7.30
